In the case of `O=C(NCC1(c2ccc(Cl)nc2Cl)CC1)c1cccnc1Cl` [A.122, 2-Chloro-N-[1-(2,6-dichloro-pyridin-3-yl)-cyclopropylmethyl]nicotinamide], the melting point (as a rule, the temperature, or range, at which the solid turns liquid) was in the range of 206 to 207 °C.

Values taken from US20150223456A1, “PESTICIDAL COMPOUNDS” (SYNGENTA PARTICIPATIONS AG, priority 2011, published 2015).
